Laboratory results: patent publication US20250313530A1, “SMALL MOLECULE INHIBITORS OF INTERLEUKIN-4 AND USES THEREOF” (Trustees of Boston University, priority 2024, published 2025)
“And” between values parts separate entries of the source, which are not always exact repeats. Identical values can stand only once. Like-named read-outs stand apart in the source and are kept apart here.

Legend:
[1] = system: B16-F10 cells; experiment: In vitro cytotoxicity (CellTiter-Glo); assay type: cell-based; settings: up to 25 μM
Method: CellTiter-Glo 2.0 purchased from Promega G9242) was used to measure cell viability with the Victor-3 plate reader (PerkinElmer) after 24 hours in concentrations of compound up to 25 μM. Vehicle was used as a negative control for both cytotoxicity and growth inhibition, methanol was used as a positive control for cytotoxicity, and 1% FBS was used as a positive control for growth inhibition.

[2] = system: IL-4 induced STAT-6 phosphorylation in Ramos B lymphocytes (type I IL-4 receptor); experiment: Ramos STAT-6 phosphorylation assay (western blot); assay type: cell-based
Method: Ramos cells were purchased from ATCC and maintained in RMPI-1640 with 10% heat-inactivated Fetal Bovine Serum. Cells used for assays were between passages 4 and 8. […] Undiluted cell lysates were run SDS-PAGE and transferred to Immunoblot PVDF membrane using Biorad equipment. Membranes were incubated with 1:1000 primary antibody overnight at 4° C. Membranes were then incubated with 1:50,000 dilution secondary for 1 hour at room temperature. Membranes were then exposed to Femto ECL for 5 minutes and imaged using a Bio-Rad Gel Doc. The brightness/contrast was adjusted in FIJI and the area under the curve of each lane was quantified. The phosphorylated STAT-6 to STAT-6 ratio was calculated and normalized to the amount of total STAT-6. The data was plotted and analyzed using GraphPad Prism 9.2.0.

[3] = target: T1, IL-4 (Homo sapiens, UniProt P05112); experiment: HEK-Blue IL-4/IL-13 reporter assay, IL-4 inhibition; assay type: cell-based; settings: control: cells with 10 μM compound only, no IL-4
T1 construct: purchased Acros Biosystems IL4-H4218; host or cells: HEK-293
T1 sequence (P05112 25-153): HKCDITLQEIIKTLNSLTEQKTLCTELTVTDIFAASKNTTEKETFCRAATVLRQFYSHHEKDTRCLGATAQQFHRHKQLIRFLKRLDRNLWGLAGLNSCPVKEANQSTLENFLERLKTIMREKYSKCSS

[4] = target: IL-13 (Homo sapiens, UniProt P35225); experiment: HEK-Blue IL-4/IL-13 reporter assay, IL-13 inhibition; assay type: cell-based; settings: soluble IL-13 mediated signaling, HEK Blue IL-4/IL-13 reporter assay
IL-13, sequence (P35225 25-146): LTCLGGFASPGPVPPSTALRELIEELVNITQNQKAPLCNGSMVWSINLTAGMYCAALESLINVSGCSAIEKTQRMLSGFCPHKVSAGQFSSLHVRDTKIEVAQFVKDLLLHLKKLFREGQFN
Method: Prior to screening. […] The solution was added to preincubated cells in a 96-well culture plate. The supernatant was then incubated with Quanti-Blue dye for 3 hours and absorbance was measured at 650 nm. Data was analyzed and plotted using GraphPad Prism 9.2.0.

[5] = target: T2, soluble IL-4 (Homo sapiens, UniProt P05112); experiment: Differential scanning fluorimetry (thermal shift), IL-4; assay type: binding
T2 sequence (P05112 25-153): T1 sequence (P05112 25-153)
Method: DSF was performed using BioRad CFX384.

[6] = system: IL-4 induced STAT-6 phosphorylation in THP-1 monocytes (type II IL-4 receptor); experiment: THP-1 STAT-6 phosphorylation assay (western blot); assay type: cell-based
Method: THP-1 cells were received as a gift from the laboratory of Dr. Mark Grinstaff and maintained in RMPI-1640 with […] heat-inactivated Fetal Bovine Serum and 50 μM beta-mercaptoethanol. Cells used for assays were between passages 6 and 10, 10 ng/mL IL-4 was preincubated with experimental sample (vehicle or analogs) for 30 minutes at 37° C. 1 mL of each solution was then added to a pellet of 2 E6 THP-1 cells and pipetted up and down. THP-1 cells were incubated for 30 minutes in the incubator at 37 C/5% CO2. Cells were then spun down and lysed with 200 μL ice-cold RIPA buffer complete with phosphatase and protease inhibitors. Cell lysates were incubated on ice for 30 minutes, spun down and the supernatants were stored at −20° C. until western blot analysis. Undiluted cell lysates were run on SDS-PAGE and transferred to Immunoblot PVDF membrane using Biorad equipment. Membranes were incubated with 1:1000 primary antibody overnight at 4° C. Membranes were then incubated with 1:50,000 dilution secondary for 1 hour at room temperature. Membranes were then exposed to Femto ECL for 5 minutes and imaged using a Bio-Rad Gel Doc. The brightness/contrast was adjusted in FIJI and the area under the curve of each lane was quantified. The phosphorylated STAT-6 to STAT-6 ratio was calculated and normalized to the amount of total STAT-6. The data was plotted and analyzed using GraphPad Prism 9.2.0′.

[7] = Human plasma stability; assay type: in vitro ADME
[8] = target: T1, IL-4; experiment: HEK-Blue IL-4/IL-13 reporter assay, IL-4 inhibition; assay type: cell-based; settings: for EC50: dose response, IL-4 inhibition

N#Cc1c(-c2ccc(O)c(O)c2)cc(-c2ccccc2)[nH]c1=N [Compound 15, 4-(3,4-dihydroxyphenyl)-2-imino-6-phenyl-1,2-dihydropyridine-3-carbonitrile]
Cytotoxicity in B16-F10 cells (24 hours) [1]: no toxicity | Cytotoxicity in B16-F10 cells (24 hours) ([1]; listed as Analog 15): n.s. < 25 μM | inhibition at 0.5 µM ([2]; Homo sapiens, Ramos, read-out: percent inhibition of STAT-6 phosphorylation): 61.9% | inhibition of phosphorylation of STAT-6 ([2]; Ramos B lymphocytes, 50 nM): minimum inhibition | Abs650 [3]: 0.06345 ± 0.001036 | EC50 [4]: 4490 nM | ΔTm at 2 µM ([5]; IL-4 shift minus IL-2 shift, 2 μM, read-out: thermal shift for IL-4 stronger than for IL-2 by): > 1 °C | ΔTm at 2 µM ([5]; soluble IL-4, 2 μM compound, 0.1% DMSO, read-out: Tm shift): 1.75 °C | EC50 ([6]; Homo sapiens, THP-1 monocytes, western blot, normalized to STAT-6, read-out: EC50 of inhibition of STAT-6 phosphorylation): 49.6 nM | STAT-6 levels ([6]; total STAT-6, THP-1 cells): not impacted | Human plasma stability (% remaining after 3 hours) [7]: 97.4% | inhibition at 10 µM ([8]; HEK-Blue, 10 μM, IL-4, HEK Blue IL-4/IL-13 reporter assay): 95.5% | EC50 ([8]; HEK Blue IL-4/IL-13 reporter assay, read-out: EC50): 850 nM and 550 nM | EC50 ([8]; values in text, read-out: potency (EC50 of inhibition)): 552 nM | Hill coefficient ([8]; fit of dose response in HEK Blue IL-4/IL-13 reporter assay): 1.49±0.15
